Each structure is given as a SMILES string. Where only a bound is given, the exact number is not on record here.

The target of this assay is PIK3CA (human) (UniProt P42336). The assay can be described thus: Inhibition of PIK3CA Kinase Activity.
Sequence of PIK3CA (human) (P42336 whole entry, looked up): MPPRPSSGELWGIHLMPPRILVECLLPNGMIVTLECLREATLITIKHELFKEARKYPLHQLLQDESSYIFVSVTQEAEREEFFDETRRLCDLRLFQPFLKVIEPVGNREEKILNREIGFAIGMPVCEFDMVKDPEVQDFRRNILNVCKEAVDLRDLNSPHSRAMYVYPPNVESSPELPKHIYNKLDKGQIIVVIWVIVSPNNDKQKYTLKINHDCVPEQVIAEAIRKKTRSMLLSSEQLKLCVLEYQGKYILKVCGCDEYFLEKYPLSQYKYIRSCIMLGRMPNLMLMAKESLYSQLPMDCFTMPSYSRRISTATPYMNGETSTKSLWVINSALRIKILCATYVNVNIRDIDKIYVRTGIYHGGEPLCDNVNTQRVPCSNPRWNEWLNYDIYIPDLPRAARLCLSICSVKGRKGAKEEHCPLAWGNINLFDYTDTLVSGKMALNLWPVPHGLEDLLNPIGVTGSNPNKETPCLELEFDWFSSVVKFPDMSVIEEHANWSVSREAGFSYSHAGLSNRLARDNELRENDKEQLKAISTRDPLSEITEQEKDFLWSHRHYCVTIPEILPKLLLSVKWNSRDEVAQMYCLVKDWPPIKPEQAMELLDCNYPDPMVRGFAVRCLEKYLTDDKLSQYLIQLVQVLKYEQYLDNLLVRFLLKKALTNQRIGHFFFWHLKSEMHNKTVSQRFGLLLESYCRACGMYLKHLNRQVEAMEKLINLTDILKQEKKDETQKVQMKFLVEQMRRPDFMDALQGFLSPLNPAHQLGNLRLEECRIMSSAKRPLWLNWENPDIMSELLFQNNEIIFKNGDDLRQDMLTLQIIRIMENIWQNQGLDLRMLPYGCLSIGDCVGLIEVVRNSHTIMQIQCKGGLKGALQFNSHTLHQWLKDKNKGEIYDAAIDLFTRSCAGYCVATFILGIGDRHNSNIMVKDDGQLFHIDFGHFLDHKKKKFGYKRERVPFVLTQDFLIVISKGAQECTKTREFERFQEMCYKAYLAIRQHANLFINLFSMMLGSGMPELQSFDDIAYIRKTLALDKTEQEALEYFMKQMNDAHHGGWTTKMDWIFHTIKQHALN
Consider `Nc1ncc(-c2nc(N3CCOCC3)nc3c2nc(-c2ccsc2)n3C2CCCC2)cn1`, for which the 50% inhibitory concentration (IC50) (in general, the concentration that gives 50% inhibition) is < 100 nM. Regarding `CCC(C)n1c(-c2ccccc2)nc2c(-c3cnc(N)nc3)nc(N3CCOCC3)nc21` (centres undefined), the IC50 fell in the range of 100 to 1000 nM. As to `CCC(C)n1c(SC)nc2c(-c3cnc(N)cn3)nc(N3CCOCC3)nc21` (centres undefined), the half-maximal inhibitory concentration (IC50) was in the range of 100 to 1000 nM. For `CC(C)Nc1nc2c(-c3cnc(N)nc3)nc(N3CCOCC3)nc2n1C1CCCCC1C` (centres undefined), the IC50 is < 100 nM. In the case of `CCC(C)n1c(N2CCc3ccccc3C2)nc2c(-c3cnc(N)nc3)nc(N3CCOCC3)nc21` (centres undefined) it was 100 to 1000 nM. Compound `CN1CCN(c2nc3c(-c4cnc(N)nc4)nc(N4CCOCC4)nc3n2C2CCCC2)CC1` returned an IC50 of 100 to 1000 nM. `CC(C)n1c(-c2ccccc2)nc2c(-c3cnc(N)cn3)nc(N3CCOCC3)nc21` returned an IC50 of 100 to 1000 nM. With `CCC(C)n1c(NCCOC)nc2c(-c3cnc(N)nc3)nc(N3CCOCC3)nc21` (centres undefined) the figure was < 100 nM; with `Nc1ncc(-c2nc(N3CCOCC3)nc3c2nc(NCC2CC2)n3C2CCCC2)cn1`, < 100 nM; with `CCC(C)n1c(Sc2ccccc2)nc2c(-c3cnc(N)nc3)nc(N3CCOCC3)nc21` (centres undefined), 100 to 1000 nM.

With `CCC(C)n1c(NCCN(C)C)nc2c(-c3cnc(N)nc3)nc(N3CCOCC3)nc21` (centres undefined), the concentration for half-maximal inhibition (IC50) was in the range of 100 to 1000 nM.

With `CC(C)n1c(-c2ccsc2)nc2c(-c3cnc(N)nc3)nc(N3CCOCC3)nc21`, the IC50 is < 100 nM.

For the compound `CCC(C)n1c(-c2ccsc2)nc2c(-c3cnc(N)nc3)nc(N3CCOCC3)nc21` (centres undefined), the IC50 is < 100 nM. For `CCOc1nc2c(-c3cnc(N)nc3)nc(N3CCOCC3)nc2n1C(C)CC` (centres undefined), the IC50 fell in the range of 100 to 1000 nM. Take `CC(C)n1c(OC2CCCC2)nc2c(-c3cnc(N)nc3)nc(N3CCOCC3)nc21`: the IC50 lay within 100 to 1000 nM. As to `CC(C)n1c(-c2ccccc2)nc2c(-c3cnc(N)nc3)nc(N3CCOCC3)nc21`, the half-inhibitory concentration (IC50) is < 100 nM.

With `CCCCNc1nc2c(-c3cnc(N)nc3)nc(N3CCOCC3)nc2n1C(C)CC` (centres undefined), the 50% inhibitory concentration (IC50) is < 100 nM. On to `CCC(C)n1c(SC)nc2c(-c3cnc(N)nc3)nc(N3CCOCC3)nc21` (centres undefined), for which the IC50 was in the range of 100 to 1000 nM.

As for `CC(C)Nc1nc2c(-c3cnc(N)nc3)nc(N3CCOCC3)nc2n1C(C)C`, the 50% inhibitory concentration (IC50) was < 100 nM.

For `CCC(C)n1c(N2CCCC2)nc2c(-c3cnc(N)nc3)nc(N3CCOCC3)nc21` (centres undefined), the concentration for half-maximal inhibition (IC50) is 100 to 1000 nM. For `CN(C)c1nc2c(-c3cnc(N)nc3)nc(N3CCOCC3)nc2n1C1CCCC1`, the IC50 is < 100 nM. In the case of `CCSc1nc2c(-c3cnc(N)cn3)nc(N3CCOCC3)nc2n1C(C)CC` (centres undefined) it was 100 to 1000 nM; in that of `CCC(C)n1c(NC(C)C)nc2c(-c3cnc(N)nc3)nc(N3CCOCC3)nc21` (centres undefined), < 100 nM; in that of `CCC(C)n1c(N2CCCC2C)nc2c(-c3cnc(N)nc3)nc(N3CCOCC3)nc21` (centres undefined), 100 to 1000 nM. Take `CSc1nc2c(-c3cnc(N)nc3)nc(N3CCOCC3)nc2n1C(C)C`: the IC50 is < 100 nM. In the case of `CCCCNc1nc2c(-c3cnc(N)nc3)nc(N3CCOCC3)nc2n1C1CCCC1` it was < 100 nM. As to `CCSc1nc2c(-c3cnc(N)nc3)nc(N3CCOCC3)nc2n1C(C)C`, the IC50 is < 100 nM. `CC1CCCCC1n1c(N(C)C)nc2c(-c3cnc(N)nc3)nc(N3CCOCC3)nc21` (centres undefined) yielded an IC50 of 100 to 1000 nM. Compound `CCC(C)n1c(NC(C)C)nc2c(-c3cnc(N)cn3)nc(N3CCOCC3)nc21` (centres undefined) had a 50% inhibitory concentration (IC50) of 100 to 1000 nM. Regarding `CC(C)Nc1nc2c(-c3cnc(N)nc3)nc(N3CCOCC3)nc2n1C1CCCC1`, the concentration for half-maximal inhibition (IC50) was < 100 nM. With `CC(=O)Nc1cccc(-c2nc3c(-c4cnc(N)nc4)nc(N4CCOCC4)nc3n2C(C)C)c1`, the IC50 was < 100 nM.

For the compound `CCC(C)n1c(N2CCN(CC)CC2)nc2c(-c3cnc(N)nc3)nc(N3CCOCC3)nc21` (centres undefined), the IC50 was in the range of 100 to 1000 nM. For `CCC(C)n1c(N(C)C)nc2c(-c3cnc(N)nc3)nc(N3CCOCC3)nc21` (centres undefined), the IC50 is < 100 nM.

As to `CC(C)n1c(-c2ccc3c(c2)OCO3)nc2c(-c3cnc(N)nc3)nc(N3CCOCC3)nc21`, the IC50 is < 100 nM.

These data come from the Kinase Knowledgebase extract (Sharma et al. 2016).
